In the NIST ThermoML archive (doi:10.1021/je2013704):

Test: mn = molality of the nth substance listed, in mol/kg
Conditions: Liquid, Vibrating tube method

[I-].[K+] [potassium iodide] + O
mass density [kg/m3]
Conditions	283.15 K	298.12 K	323.07 K	348.04 K	372.99 K	397.97 K	422.94 K	447.94 K	472.96 K
1050 kPa, m1 = 0.669	1078.98	1074.75	1064.04	1049.72	1032.6	1012.71	990.31	965.35	–
1050 kPa, m1 = 0.9	–	1100.27	1088.99	1074.24	1056.8	1036.96	1014.85	990.56	–
1050 kPa, m1 = 1.063	1122.95	1117.9	1106.19	1091.2	1073.46	1053.24	1030.64	1005.63	–
10020 kPa, m1 = 0.669	1083.16	1078.81	1067.95	1053.73	1036.79	1017.19	995.34	970.94	944.19
10020 kPa, m1 = 0.9	–	1104.27	1092.94	1078.29	1061.02	1041.47	1019.62	996.18	–
10020 kPa, m1 = 1.063	1127.11	1121.98	1110.17	1095.23	1077.72	1057.79	1035.74	1011.23	984.84
19970 kPa, m1 = 0.669	1087.75	1083.04	1072.19	1057.99	1041.3	1022.06	1000.61	976.95	950.96
19970 kPa, m1 = 0.9	–	1108.67	1097.21	1082.62	1065.55	1046.32	1024.97	1002.22	–
19970 kPa, m1 = 1.063	1131.7	1126.32	1114.52	1099.65	1082.29	1062.77	1041.07	1017.26	991.38
29900 kPa, m1 = 0.669	1092.18	1087.37	1076.42	1062.23	1045.73	1026.71	1005.73	982.65	957.4
29900 kPa, m1 = 0.9	–	1112.93	1101.41	1086.89	1070.01	1050.95	1030.16	1007.94	–
29900 kPa, m1 = 1.063	1136.2	1130.67	1118.76	1103.95	1086.83	1067.47	1046.25	1022.96	997.97
39830 kPa, m1 = 0.669	1096.51	1091.56	1080.45	1066.38	1050.01	1031.29	1010.72	988.1	963.57
39830 kPa, m1 = 0.9	–	1117.15	1105.46	1091.06	1074.32	1055.56	1035.28	1013.36	–
39830 kPa, m1 = 1.063	1140.54	1134.96	1122.89	1108.16	1091.17	1072.16	1051.3	1028.47	1004.2
49760 kPa, m1 = 0.669	1100.74	1095.69	1084.42	1070.32	1054.18	1035.78	1015.55	993.34	969.44
49760 kPa, m1 = 0.9	–	1121.3	1109.41	1095.03	1078.51	1060.02	1040.03	1018.68	–
49760 kPa, m1 = 1.063	1144.78	1139.11	1126.88	1112.21	1095.44	1076.71	1056.19	1033.81	1010.14
59680 kPa, m1 = 0.669	1104.92	1099.67	1088.3	1074.35	1058.24	1040.1	1020.17	998.49	975.11
59680 kPa, m1 = 0.9	–	1125.31	1113.37	1099.04	1082.5	1064.32	1044.78	1023.8	–
59680 kPa, m1 = 1.063	1149.02	1143.14	1130.86	1116.3	1099.61	1081.09	1060.87	1038.97	1015.81
68120 kPa, m1 = 0.669	1108.52	1103	1091.53	1077.66	1061.64	1043.65	1024	1002.64	979.68
68120 kPa, m1 = 0.9	–	1128.62	1116.58	1102.03	1085.89	1067.94	1048.68	1027.98	–
68120 kPa, m1 = 1.063	1152.59	1146.49	1134.11	1119.62	1103.03	1084.7	1064.81	1043.19	1020.4
